The values below come from patent publication US20250257041A1, “INDUCERS OF INTEGRATED STRESS RESPONSE TO TREAT CANCER” (The Board of Regents of The University of Texas System, priority 2022, published 2025).

pIC50: −log10 of the molar value. Where two headings read alike, the source gives them in different places. Bounds are passed on as bounds.

Data set [1] relates to HCT116 WT. Kind of data set: Proliferation of HCT116 colorectal cell line, Cell TiterGlo. It counts as cell-based, human. In a few lines:
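HCT116 colorectal cells, wild type, GCN2 CRISPR knockout, or wild type plus ISRIB; proliferation read by CellTiter-Glo luminescence. 10-point dose response in triplicate, IC50 reported; multiple values are independent experiments.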

For data set [2], the system named is Jurkat (Leukemia) cells. Kind of data set: Jurkat viability and cytotoxicity, GF-AFC and Cytox. Conditions: varying doses. It is filed as cell-based, human. On the procedure: FIG. 6A provides cytotoxicity studies for leukemia cells (Jurkat) with compound SW388710. […] Jurkat (Leukemia) cells were incubated with varying doses of SW388710.
For data set [3], the system named is phospho-GCN2. The data set can be described thus: Western blot for phospho-GCN2 in HCT116 wild-type and RPS23 mutant cells. It counts as cell-based, human. As to conditions: wild-type HCT116 versus RPS23 del R107-G109 mutant. The method, then: FIG. 12 is a western blot analysis showing the RPS23 is required for induction of GCN2 phosphorylation by SW710 (SW388710). Cells were incubated with SW710, lysed, then evaluated via western blot for phospho-GCN2, a marker of activation of the integrated stress response.
To confirm this hypothesis, wild-type HCT116 cells and HCT116 RPS23 del R107-G109 mutant cells were incubated with SW388710. Cells were lysed and evaluated via western blot for phospho-GCN2, a marker of activation of the integrated stress response.

Data set [4] deals with HCT116 GCN2KO. Kind of data set: Proliferation of HCT116 cells with GCN2 knocked out (CRISPR), Cell TiterGlo. It is filed as cell-based, human. Conditions: for IC50: Homo sapiens. The method, then:
Briefly, compounds were tested for their effect on proliferation of HCT116 colorectal cell lines using Cell TiterGlo (Promega). Each compound was tested in a 10-point dose response experiment in triplicate. Multiple values in the column titled HCT116 WT reflect separate independent experiments. The three columns titled “HCT116 WT (repeat)”, “HCT116-CGN2KO” and “HCT116 WT+ISRIB” provide data for selected compounds that were tested simultaneously under three conditions. The HCT116 WT column lists IC50 against the wild type HCT116 colorectal cancer cell line. The HCT116-CGN2KO lists IC50 data for cells in which one component of the integrated stress response, GCN2, has been knocked out using CRISPR technology.

Data set [5] deals with HCT-116 (colorectal) cells. Kind of data set: HCT-116 viability and cytotoxicity, GF-AFC and Cytox. It counts as cell-based, human. As to conditions: varying doses. The method, then: FIG. 6B provided cytostatic data for colorectal cells, with compound SW388710. […] HCT-116 (colorectal) cells were incubated with varying doses of SW388710.
For data set [6], the system named is Jurkat cells. The data set can be described thus: Jurkat cell proliferation over three days, Cell Titer Glo. It counts as cell-based, human. The method, then:
FIG. 5A provides cell proliferation studies using Jurkat cells using exemplary novel compounds provided in the current disclosure. Jurkat cells, which are derived from a human leukemia, were incubated with varying concentrations of SW388710. Cell proliferation over three days was evaluated using luminescence from Cell Titer Glo (Promega) which reflects ATP levels.
FIG. 5B provides cell proliferation studies using Jurkat cells using exemplary novel compounds provided in the current disclosure. Jurkat cells, which are derived from a human leukemia, were incubated with varying concentrations of SW393071. Cell proliferation over three days was evaluated using luminescence from Cell Titer Glo (Promega) which reflects ATP levels.

A short description of data set [7]: Solubility remark printed in the HCT116 WT column. Conditions: cell wraps over r19 and r20: poor solubility. It counts as physicochemical.
The target of data set [8] is T1, RPS23 (Homo sapiens, UniProt P62266).
T1 construct: endogenous in cells; host or cells: HCT116
Kind of data set: Photo-crosslinking in HCT116 cells, biotin-azide click, streptavidin pull-down, western blot for RPS23. It counts as binding. As to conditions: HCT116 wild-type or RPS23 del R107-G109 mutant, UV irradiation. The method, then: Next HCT116 cells were incubated with SW393071 analogs conjugated to a photo-crosslinker (analogs: SW393065, SW393212 and SW393213), and irradiated with UV light. The cells were lysed and click-conjugated to biotin-azide. Drug-bound proteins were pulled down with streptavidin coated beads and resolved on an SDS-PAGE gel.
Wild-type or RPS23 del R107-G109 knock-in mutant HCT116 cells were incubated with photo-crosslinker analog SW393212 and irradiated with UV light. The cells were lysed, and click-conjugated to biotin-azide essentially as shown in Example 7. Drug-bound proteins were pulled down with streptavidin coated beads and resolved on an SDS-PAGE gel.

The mark [9] stands for this setting: Homo sapiens, HCT-116, wild type HCT116, 10-point dose response in triplicate, multiple values = separate independent experiments, read-out: HCT116 IC50 (uM) HCT116 WT.
Where [10] appears, read: Homo sapiens, HCT-116, wild type HCT116, tested simultaneously with GCN2KO and +ISRIB, read-out: HCT116 IC50 (uM) HCT116 WT (repeat).
Where [11] appears, read: wild type HCT116, compound plus 10 nM of ISRIB, read-out: HCT116 IC50 (uM) HCT116 WT + ISRIB.
The mark [12] stands for this setting: HCT-116, HCT116 cells with GCN2 knocked out using CRISPR, read-out: HCT116 IC50 (uM) HCT116 − GCN2KO.

Take `COc1cccc(C(=O)Nc2cc(-c3ccc(NC(=O)c4ccccc4)cc3)nn2C)c1` [SW388710, N-(3-(4-Benzamidophenyl)-1-methyl-1H-pyrazol-5-yl)-3-methoxybenzamide]: the IC50 in data set [1] (setting [9]) was 0.23 µM; in data set [1] (setting [10]), 0.21 µM; in data set [1] (setting [11]), 1.89 µM; in data set [4] (setting [12]) it was 1.95 µM. For the same compound, the “Cell death in leukemic cells” value in data set [2] is on record as “induces cell death in leukemic cells”. Further, in data set [3], the “Activation of the ISR (phosphorylation of GCN2)” value is “Wild-type but not RPS23 mutant cells, showed activation of the ISR”. The “Resistance on knockout of GCN2” value in data set [4] (HCT116, GCN2 but not other activating kinases) was “confers resistance”. For the same compound, the “Proliferation of colorectal cancer cells” value in data set [5] is “reduces the proliferation of colorectal cancer cells”. The pIC50 in data set [6] (Homo sapiens, Jurkat, 72 h, three days, Cell Titer Glo luminescence) was 7.11. Besides, the “Effect of ISRIB on anti-proliferative activity in Jurkat cells” value in data set [6] (addition of 10 nM of ISRIB) was “relative resistance”.
`Cn1nc(-c2ccc(NC(=O)c3ccccc3)cc2)cc1NC(=O)c1ccc(C(=O)c2ccccc2)cc1` [SW389003, N-(3-(4-Benzamidophenyl)-1-methyl-1H-pyrazol-5-yl)-4-benzoylbenzamide]: the IC50 in data set [1] (Homo sapiens, HCT-116, read-out: HCT116 IC50 (uM) HCT116 WT (repeat)) is at least 50 µM; in data set [4] (HCT-116, read-out: HCT116 IC50 (uM) HCT116 − GCN2KO) it was at least 50 µM. For the same compound, the “Solubility (remark in place of an IC50)” value in data set [7] is “poor”.
As to `Cn1nc(-c2ccc(NC(=O)c3ccccc3Cl)cc2)cc1NC(=O)c1cccc(C2(C(F)(F)F)N=N2)c1` [SW393172, 2-Chloro-N-(4-(1-methyl-5-(3-(3-(trifluoromethyl)-3H-diazirin-3-yl)benzamido)-1H-pyrazol-3-yl)phenyl)benzamide], the IC50 in data set [1] (setting [9]) stood at 3.6 µM; in data set [1] (setting [10]) it was 5.08 µM; in data set [1] (setting [11]), 5.25 µM; in data set [4] (setting [12]) it was 4.37 µM.
In the case of `C#CCN(C(=O)c1ccccc1Cl)c1ccc(-c2cc(NC(=O)c3cccc(C4(C(F)(F)F)N=N4)c3)n(C)n2)cc1` [SW393173, 2-Chloro-N-(4-(1-methyl-5-(3-(3-(trifluoromethyl)-3H-diazirin-3-yl)benzamido)-1H-pyrazol-3-yl)phenyl)-N-(prop-2-yn-1-yl)benzamide], the IC50 in data set [1] (setting [9]) was found to be 2.4 µM; in data set [1] (setting [10]), 4 µM; in data set [1] (setting [11]), 3.11 µM; in data set [4] (setting [12]), 2.9 µM.
Turning to `C#CCN(C(=O)c1ccccc1Cl)c1ccc(-c2cc(NC(=O)c3ccccc3)n(C)n2)cc1` [SW393174, N-(4-(5-Benzamido-1-methyl-1H-pyrazol-3-yl)phenyl)-2-chloro-N-(prop-2-yn-1-yl)benzamil-de], the IC50 in data set [1] (setting [9]) turned out to be 6.1 µM; in data set [1] (setting [10]), 7.18 µM; in data set [1] (setting [11]), 6.52 µM; in data set [4] (setting [12]) it was 6.37 µM.
In the case of `C#Cc1cccc(C(=O)Nc2cc(-c3ccc(NC(=O)c4cc(N=[N+]=[N-])ccc4Cl)cc3)nn2C)c1` [SW393212, 5-Azido-2-chloro-N-(4-(5-(3-ethynylbenzamido)-1-methyl-1H-pyrazol-3-yl)phenyl)benza-mide], the IC50 in data set [1] (setting [9]) is 0.72 µM. Also, the “RPS23 bands after photo-crosslinking pull-down” value in data set [8] is “bands from WT but not RPS23 mutant cells”.
